Experimental data taken from patent US9689244B2, “Process for water wetting oil-wet surfaces” (BASF SE, priority 2012, dated 2017).

Experiments:
Format in all cases: physicochemical
[1] = Cloud point of conventional surfactants in saline water; settings: 1% in water having a salinity of 50.000 ppm NaCl
Method: For comparative purposes, two conventional surfactants were tested at a concentration of 1% in water having a salinity of 50.000 ppm NaCl and in the usual manner their cloud point was determined.

[2] = Surface tension (DuNouy ring method) and critical micelle formation concentration
Method: The surface tension was measured as a function of the concentration of the surface active components using the DuNouy ring method (according to Din 53914). The critical micelle formation concentration (cmc) was derived in the usual manner from the measurement graph.
The salts used were NaCl and CaCl2 at a weight ratio of 9:1 NaCl/CaCl2.

[3] = Interfacial tension between aqueous solution and oil phase (spinning drop tensiometer)
Method: The interfacial tension between aqueous solutions of tested compounds and an oil phase were measured with a spinning drop tensiometer (DataPhysics). As the composition of crude oils may vary decane, dodecane, and hexadecane were used as model oils in order to study the range of application of the tested compounds.

[4] = Modification of the wettability: contact angle of oil on oil wet polyethylene platelets; settings: for Contact angle: dodecane
Method: Polyethylene platelets (3 cm×2 cm) were use as hydrophobic model surfaces for oil wet rocks. As a first step, 5 μl decane or 5 μl dodecane were applied to the polyethylene platelets. The hydrophobic liquids spread on the hydrophobic surface. The contact angle between the oil and the polyethylene surface was measured using a usual contact angle measuring device (DataPhysics) and consequently a value of 0° was obtained. The oil wet platelets were submerged into an aqueous solution of 1 g/l by weight of the compound to be tested. […] The contact angle between oil and the polyethylene surface was measured as function of time. Furthermore, it was inspected visually whether oil droplets became detached from the surface.

[5] = 25 °C, brine NaCl/CaCl2 (9:1) 10,000 ppm
[6] = 25 °C, brine NaCl/CaCl2 (9:1) 100,000 ppm
[7] = 60 °C, brine NaCl/CaCl2 (9:1) 10,000 ppm
[8] = 60 °C, brine NaCl/CaCl2 (9:1) 100,000 ppm

Question: For C13-alcohol+20 EO, which Cloud point [1] is on record?
Answer: The Cloud point was 86 °C.

Question: With C16/18-alcohol+80 EO as the substance, how does the Cloud point [1] read?
Answer: Its Cloud point is 87 °C.

Question: Which “ST At 1 g/l” value ([2]; 25 °C, brine 10,000 ppm) does the source give for “Saccharose * 40 EO diester with C12/C18 fatty acid [Compound S2]” here?
Answer: The value was 34.6 mN/m.

Question: What about the “ST At 1 g/l” value ([2]; 25 °C, brine 100,000 ppm) of the same substance?
Answer: The value was 34.6 mN/m.

Question: And the cmc [2, 5]?
Answer: The cmc was 0.03 g/L.

Question: What about the cmc [2, 6] of the same substance?
Answer: Its cmc is 0.03 g/L.

Question: And the “ST At 1 g/l” value ([2]; 60 °C, brine 10,000 ppm)?
Answer: Its value is 27.7 mN/m.

Question: And the “ST At 1 g/l” value ([2]; 60 °C, brine 100,000 ppm)?
Answer: The value was 28.3 mN/m.

Question: And the cmc [2, 7]?
Answer: Its cmc is 0.04 g/L.

Question: What about the cmc [2, 8] of the same substance?
Answer: Its cmc is 0.02 g/L.

Question: What about the “IFT after 60 min, 1 g/l of sample in aqueous phase, decane” value (from here on “IFT … in aqueous phase, decane”) ([3]; 25 °C, brine 10,000 ppm) of the same substance?
Answer: The value was 2.3 mN/m.

Question: What about the “IFT … in aqueous phase, decane” value ([3]; 25 °C, brine 100,000 ppm) of the same substance?
Answer: The value was 2.1 mN/m.

Question: What about the “IFT … in aqueous phase, decane” value ([3]; 60 °C, brine 10,000 ppm) of the same substance?
Answer: Its value is 0.46 mN/m.

Question: And the “IFT … in aqueous phase, decane” value ([3]; 60 °C, brine 100,000 ppm)?
Answer: The value was 0.36 mN/m.

Question: And the “IFT after 60 min, 1 g/l of sample in aqueous phase, docecane” value (from here on “IFT after 60 min, 1 g/l … docecane”) ([3]; 25 °C, brine 10,000 ppm)?
Answer: The value was 2.0 mN/m.

Question: And the “IFT after 60 min, 1 g/l … docecane” value ([3]; 60 °C, brine 10,000 ppm)?
Answer: Its value is 0.34 mN/m.

Question: And the “IFT after 60 min, 1 g/l of sample in aqueous phase, hexadecane” value (“IFT after 60 min, 1 g/l … hexadecane” below) ([3]; 25 °C, brine 10,000 ppm)?
Answer: Its value is 2.2 mN/m.

Question: What about the “IFT after 60 min, 1 g/l … hexadecane” value ([3]; 60 °C, brine 10,000 ppm) of the same substance?
Answer: The value was 0.40 mN/m.

Question: With “Saccharose* 20 EO monoester with C16/C18 fatty acid [Compound S1]” as the substance, how does the “ST At 1 g/l” value ([2]; 25 °C, brine 10,000 ppm) read?
Answer: The value was 33.7 mN/m.

Question: What about the “ST At 1 g/l” value ([2]; 25 °C, brine 100,000 ppm) of the same substance?
Answer: Its value is 34.5 mN/m.

Question: And the cmc [2, 5]?
Answer: The cmc was 0.03 g/L.

Question: And the cmc [2, 6]?
Answer: The cmc was 0.02 g/L.

Question: And the “ST At 1 g/l” value ([2]; 60 °C, brine 10,000 ppm)?
Answer: Its value is 29.6 mN/m.

Question: What about the “ST At 1 g/l” value ([2]; 60 °C, brine 100,000 ppm) of the same substance?
Answer: Its value is 29.1 mN/m.

Question: What about the cmc [2, 7] of the same substance?
Answer: The cmc was 0.03 g/L.

Question: And the cmc [2, 8]?
Answer: The cmc was 0.02 g/L.

Question: What about the “IFT … in aqueous phase, decane” value ([3]; 25 °C, brine 10,000 ppm) of the same substance?
Answer: Its value is 3.9 mN/m.

Question: What about the “IFT … in aqueous phase, decane” value ([3]; 25 °C, brine 100,000 ppm) of the same substance?
Answer: The value was 2.4 mN/m.

Question: What about the “IFT … in aqueous phase, decane” value ([3]; 60 °C, brine 10,000 ppm) of the same substance?
Answer: The value was 0.45 mN/m.

Question: What about the “IFT … in aqueous phase, decane” value ([3]; 60 °C, brine 100,000 ppm) of the same substance?
Answer: The value was 1.2 mN/m.

Question: What about the “IFT after 60 min, 1 g/l … docecane” value ([3]; 25 °C, brine 10,000 ppm) of the same substance?
Answer: The value was 2.9 mN/m.

Question: And the “IFT after 60 min, 1 g/l … docecane” value ([3]; 60 °C, brine 10,000 ppm)?
Answer: The value was 0.19 mN/m.

Question: What about the “IFT after 60 min, 1 g/l … hexadecane” value ([3]; 25 °C, brine 10,000 ppm) of the same substance?
Answer: The value was 4.0 mN/m.

Question: And the “IFT after 60 min, 1 g/l … hexadecane” value ([3]; 60 °C, brine 10,000 ppm)?
Answer: Its value is 0.55 mN/m.

Question: What about the “Interfacial tension (IFT) between water and hydrocarbons of different chain lengths, change on addition of wettability modifier” value ([3]; hydrocarbons of different chain lengths) of the same substance?
Answer: Its value is “decreases significantly”.

Question: And the Contact angle ([4]; 25° C., brine 10,000 ppm + 1 g/l S1, time 0 min)?
Answer: Its Contact angle is 6 °.

Question: And the Contact angle ([4]; 25° C., brine 10,000 ppm + 1 g/l S1, time 30 min)?
Answer: Its Contact angle is 13 °.

Question: And the Contact angle ([4]; 25° C., brine 10,000 ppm + 1 g/l S1, time 45 min)?
Answer: The Contact angle was 14 °.

Question: What about the Contact angle ([4]; 25° C., brine 10,000 ppm + 1 g/l S1, time 60 min) of the same substance?
Answer: The Contact angle was 17 °.

Question: What about the Contact angle ([4]; 25° C., brine 10,000 ppm + 1 g/l S1, time 90 min) of the same substance?
Answer: The Contact angle was 22 °.

Question: And the Contact angle ([4]; 25° C., brine 10,000 ppm + 1 g/l S1, time 180 min)?
Answer: The Contact angle was “beginning”.

Question: And the Contact angle ([4]; 25° C., brine 100,000 ppm + 1 g/l S1, time 0 min)?
Answer: Its Contact angle is 7 °.

Question: What about the Contact angle ([4]; 25° C., brine 100,000 ppm + 1 g/l S1, time 30 min) of the same substance?
Answer: The Contact angle was 26 °.

Question: And the Contact angle ([4]; 25° C., brine 100,000 ppm + 1 g/l S1, time 45 min)?
Answer: The Contact angle was 74 °.

Question: And the Contact angle ([4]; 25° C., brine 100,000 ppm + 1 g/l S1, time 60 min)?
Answer: Its Contact angle is “oil already detached”.

Question: What about the “Time of contact after which oil is detached from the surface” value ([4]; 60° C.) of the same substance?
Answer: The value was 2 min.

Question: What about the Contact angle ([4]; 60° C., brine 10,000 ppm + 1 g/l S1, time 60 min) of the same substance?
Answer: Its Contact angle is “beginning”.

Question: What about the Contact angle ([4]; 60° C., brine 100,000 ppm + 1 g/l S1, time 0 min) of the same substance?
Answer: The Contact angle was “oil already”.
